Target: T1, ΔF508-CFTR (Homo sapiens, UniProt P13569, DEL508-508)
T1 construct: Primary lung epithelial cells homozygous for the Cystic Fibrosis-causing ΔF508 mutation were differentiated; endogenous in cells; host or cells: primary human lung/bronchial epithelial cells (hBE) homozygous for ΔF508, differentiated at an air-liquid interface
Test: hBE Equivalent Current (Ieq) Assay
Type: cell-based
Conditions: Compound A at 3 uM, primary lung epithelial cells homozygous for ΔF508, 24 hours treatment
Description: ii. hBE Equivalent Current (Ieq) Assay
Primary lung epithelial cells homozygous for the Cystic Fibrosis-causing ΔF508 mutation were differentiated for a minimum of 4 weeks in an air-liquid interface on Costar 24 well HTS filter plates prior to the equivalent current (Ieq) measurements. Cells were apically mucus-washed for 30 minutes 24 h prior to treatment with compounds. The basolateral media was removed and replaced with media containing the compound of interest diluted to its final concentration from DMSO stocks. Treated cells were incubated at 37° C. and 5% CO2 for 24 hours. At the end of the treatment period, the media was changed to the Ieq experimental solution for 2 hours before the experiment and plates are maintained in a CO2-free incubator during this period. The plates containing the cells were then placed in pre-warmed heating blocks at 36° C.±0.5 for 15 minutes before measurements are taken. The transepithelial voltage (VT) and conductance (GT) were measured using a custom 24 channel current clamp (TECC-24) with 24 well electrode manifold. The Ieq assay measurements were made following additions with standardized time periods:
1. The baseline VT and GT values were measured for approximately 20 minutes.
2. Benzamil was added to block ENaC for 15 minutes.
3. Forskolin plus VX-770 were added to maximally activate ΔF508-CFTR for 27 minutes.
4. Bumetanide was added to inhibit the NaK2Cl cotransporter and shut-off secretion of chloride.
The activity data captured was the area under the curve (AUC) for the traces of the equivalent chloride current. The AUC was collected from the time of the forskolin/VX-770 addition until the inhibition by bumetanide addition. Correction in response to compound treatment was scored as the increase in the AUC for compound-treated samples over that of vehicle-treated samples.
(+ indicates activity<150% of a CFTR amplifier (Compound A) with compound at concentration shown and Compound A at 3 uM; ++ indicates activity>150% of a CFTR amplifier with compound at concentration shown and Compound A at 3 uM.

T1 sequence (P13569 with tags, fused parts or gaps DEL508-508): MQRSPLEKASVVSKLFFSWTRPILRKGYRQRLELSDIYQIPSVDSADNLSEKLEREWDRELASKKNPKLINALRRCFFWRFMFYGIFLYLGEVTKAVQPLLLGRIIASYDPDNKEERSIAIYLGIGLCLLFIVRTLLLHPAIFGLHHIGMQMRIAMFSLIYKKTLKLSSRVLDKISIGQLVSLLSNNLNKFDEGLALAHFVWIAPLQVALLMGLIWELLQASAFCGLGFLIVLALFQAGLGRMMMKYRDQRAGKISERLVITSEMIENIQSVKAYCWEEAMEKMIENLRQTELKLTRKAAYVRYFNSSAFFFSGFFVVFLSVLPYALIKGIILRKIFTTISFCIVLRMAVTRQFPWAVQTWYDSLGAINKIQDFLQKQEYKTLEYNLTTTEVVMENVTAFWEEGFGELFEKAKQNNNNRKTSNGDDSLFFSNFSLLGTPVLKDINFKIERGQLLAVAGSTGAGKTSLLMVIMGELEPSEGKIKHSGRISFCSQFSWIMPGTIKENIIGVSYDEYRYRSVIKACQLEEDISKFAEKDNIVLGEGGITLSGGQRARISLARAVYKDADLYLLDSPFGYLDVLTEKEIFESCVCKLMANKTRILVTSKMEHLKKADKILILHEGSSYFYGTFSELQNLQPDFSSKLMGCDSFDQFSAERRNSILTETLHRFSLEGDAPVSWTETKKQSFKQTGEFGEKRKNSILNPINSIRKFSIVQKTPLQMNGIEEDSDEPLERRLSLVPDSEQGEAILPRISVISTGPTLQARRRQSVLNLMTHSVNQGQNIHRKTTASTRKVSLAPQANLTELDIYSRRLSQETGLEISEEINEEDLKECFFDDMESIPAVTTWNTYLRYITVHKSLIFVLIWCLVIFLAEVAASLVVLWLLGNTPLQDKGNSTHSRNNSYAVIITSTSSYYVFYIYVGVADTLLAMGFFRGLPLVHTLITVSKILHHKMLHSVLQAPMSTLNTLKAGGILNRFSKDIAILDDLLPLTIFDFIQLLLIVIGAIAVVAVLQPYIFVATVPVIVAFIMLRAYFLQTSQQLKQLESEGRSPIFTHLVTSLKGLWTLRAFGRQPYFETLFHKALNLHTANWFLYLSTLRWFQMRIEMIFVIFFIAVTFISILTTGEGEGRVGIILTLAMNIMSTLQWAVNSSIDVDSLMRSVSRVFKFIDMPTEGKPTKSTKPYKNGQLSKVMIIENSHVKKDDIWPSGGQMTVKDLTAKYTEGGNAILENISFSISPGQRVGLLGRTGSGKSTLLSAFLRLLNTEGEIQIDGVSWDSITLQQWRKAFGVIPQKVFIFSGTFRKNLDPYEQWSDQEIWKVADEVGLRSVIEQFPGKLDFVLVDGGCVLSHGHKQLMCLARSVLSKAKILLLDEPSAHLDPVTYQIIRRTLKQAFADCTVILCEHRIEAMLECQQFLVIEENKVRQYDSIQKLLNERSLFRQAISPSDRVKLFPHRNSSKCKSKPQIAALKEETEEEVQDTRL

| SMILES | Activity (AUC of equivalent chloride current, relative to CFTR amplifier Compound A) (compound at 3 μM) | Activity (AUC of equivalent chloride current, relative to CFTR amplifier Compound A) (compound at 10 μM) |
| --- | --- | --- |
| COc1cccc(-c2ccc(=O)n(C(C)c3nc4ccccc4o3)n2)c1 (stereo not shown) [Compound 1, 2-[1-(1,3-benzoxazol-2-yl)ethyl]-6-(3-methoxyphenyl)-2,3-dihydropyridazin-3-one] | + (activity<150% of a CFTR amplifier (Compound A) with compound at concentration shown and Compound A at 3 uM) | + (activity<150% of a CFTR amplifier (Compound A) with compound at concentration shown and Compound A at 3 uM) |
| COc1cccc(-c2ccc(=O)n(C(C)c3nc4ccccc4[nH]3)n2)c1 (stereo not shown) [Compound 2, 2-[1-(1H-1,3-benzodiazol-2-yl)ethyl]-6-(3-methoxyphenyl)-2,3-dihydropyridazin-3-one] |  | + (activity<150% of a CFTR amplifier (Compound A) with compound at concentration shown and Compound A at 3 uM) |
| COc1cccc(-c2ccc(=O)n(C(C)c3nc4cc(C(F)(F)F)ccc4[nH]3)n2)c1 (stereo not shown) [Compound 3, 6-(3-Methoxyphenyl)-2-(1-(5-(trifluoromethyl)-1H-benzo[d]imidazol-2-yl)ethyl)pyridazin-3(2H)-one] | ++ (activity>150% of a CFTR amplifier with compound at concentration shown and Compound A at 3 uM) | ++ (activity>150% of a CFTR amplifier with compound at concentration shown and Compound A at 3 uM) |
| COc1cccc(-c2ccc(=O)n(C(C)c3nc4cc(C(C)(C)C)ccc4[nH]3)n2)c1 (stereo not shown) [Compound 4, 2-(1-(5-(tert-Butyl)-1H-benzo[d]imidazol-2-yl)ethyl)-6-(3-methoxyphenyl)pyridazin-3(2H)-one] | + (activity<150% of a CFTR amplifier (Compound A) with compound at concentration shown and Compound A at 3 uM) | + (activity<150% of a CFTR amplifier (Compound A) with compound at concentration shown and Compound A at 3 uM) |
| COc1cccc(-c2ccc(=O)n(C(C)c3nc4cc(Cl)ccc4[nH]3)n2)c1 (stereo not shown) [Compound 5, 2-(1-(5-Chloro-1H-benzo[d]imidazol-2-yl)ethyl)-6-(3-methoxyphenyl)pyridazin-3(2H)-one] | + (activity<150% of a CFTR amplifier (Compound A) with compound at concentration shown and Compound A at 3 uM) | + (activity<150% of a CFTR amplifier (Compound A) with compound at concentration shown and Compound A at 3 uM) |
| CC(c1nc2cc(C(F)(F)F)ccc2[nH]1)n1nc(-c2cccc(Cl)c2)ccc1=O (stereo not shown) [Compound 6, 6-(3-Chlorophenyl)-2-(1-(5-(trifluoromethyl)-1H-benzo[d]imidazol-2-yl)ethyl)pyridazin-3(2H)-one] | ++ (activity>150% of a CFTR amplifier with compound at concentration shown and Compound A at 3 uM) | ++ (activity>150% of a CFTR amplifier with compound at concentration shown and Compound A at 3 uM) |
| COc1cccc(-c2ccc(=O)n(C(C)c3nc4nc(C(F)(F)F)ccc4[nH]3)n2)c1 (stereo not shown) [Compound 7, 6-(3-Methoxyphenyl)-2-(1-(5-(trifluoromethyl)-1H-imidazo[4,5-b]pyridin-2-yl)ethyl)pyridazin-3(2H)-one] | + (activity<150% of a CFTR amplifier (Compound A) with compound at concentration shown and Compound A at 3 uM) | + (activity<150% of a CFTR amplifier (Compound A) with compound at concentration shown and Compound A at 3 uM) |
| COc1cccc(-c2ccc(=O)n(C(C)c3nc4cc(C(F)(F)F)cnc4[nH]3)n2)c1 (stereo not shown) [Compound 8, 6-(3-Methoxyphenyl)-2-(1-(6-(trifluoromethyl)-3H-imidazo[4,5-b]pyridin-2-yl)ethyl)pyridazin-3(2H)-one] | + (activity<150% of a CFTR amplifier (Compound A) with compound at concentration shown and Compound A at 3 uM) | + (activity<150% of a CFTR amplifier (Compound A) with compound at concentration shown and Compound A at 3 uM) |
| COc1cccc(-c2ccc(=O)n(C(C)c3nc4cc(Cl)c(Cl)cc4[nH]3)n2)c1 (stereo not shown) [Compound 9, 2-(1-(5,6-Dichloro-1H-benzo[d]imidazol-2-yl)ethyl)-6-(3-methoxyphenyl)pyridazin-3(2H)-one] | ++ (activity>150% of a CFTR amplifier with compound at concentration shown and Compound A at 3 uM) | ++ (activity>150% of a CFTR amplifier with compound at concentration shown and Compound A at 3 uM) |
| CC(c1nc2cc(Cl)c(Cl)cc2[nH]1)n1nc(-c2cccc(Cl)c2)ccc1=O (stereo not shown) [Compound 10, 6-(3-Chlorophenyl)-2-(1-(5,6-dichloro-1H-benzo[d]imidazol-2-yl)ethyl)pyridazin-3(2H)-one] | + (activity<150% of a CFTR amplifier (Compound A) with compound at concentration shown and Compound A at 3 uM) | + (activity<150% of a CFTR amplifier (Compound A) with compound at concentration shown and Compound A at 3 uM) |
| COc1cccc(-c2ccc(=O)n(C(C)c3nnc(-c4ccccc4)[nH]3)n2)c1 (stereo not shown) [Compound 11, 6-(3-Methoxyphenyl)-2-[1-(5-phenyl-4H-1,2,4-triazol-3-yl)ethyl]-2,3-dihydropyridazin-3-one] |  | + (activity<150% of a CFTR amplifier (Compound A) with compound at concentration shown and Compound A at 3 uM) |
| COc1cccc(-c2ccc(=O)n(C(C)c3nnc(-c4ccc(C(F)(F)F)cc4)[nH]3)n2)c1 (stereo not shown) [Compound 12, 6-(3-Methoxyphenyl)-2-(1-(5-(4-(trifluoromethyl)phenyl)-4H-1,2,4-triazol-3-yl)ethyl)pyridazin-3(2H)-one] |  | + (activity<150% of a CFTR amplifier (Compound A) with compound at concentration shown and Compound A at 3 uM) |
| COc1cccc(-c2ccc(=O)n(C(C)c3nnc(-c4cccc(C(F)(F)F)c4)[nH]3)n2)c1 (stereo not shown) [Compound 13, 6-(3-Methoxyphenyl)-2-(1-(5-(3-(trifluoromethyl)phenyl)-4H-1,2,4-triazol-3-yl)ethyl)pyridazin-3(2H)-one] |  | + (activity<150% of a CFTR amplifier (Compound A) with compound at concentration shown and Compound A at 3 uM) |
